# Like-named read-outs stand apart in the source and are kept apart here.
# Assay: Single dose PK in healthy subjects (Cohorts 1, 2, S1 and S2), plasma
# Format: in vivo, human
# Details: human, plasma, intravenous
# Method: This study investigates (i) the safety and tolerability of Compound A (methyl (2R,3S)-3-((methylsulfonyl)amino)-2-(((cis-4-phenylcyclohexyl)oxy)methyl)piperidine-1-carboxylate) when a single dose given as a 9 hour continuous IV infusion is administered to healthy adults, healthy elderly subjects and patients with narcolepsy type 1 (NT1); (ii) the pharmacokinetics of Compound A when a single dose given as a 9 hour continuous IV infusion is administered to healthy adults, healthy elderly subjects and patients with narcolepsy type 1; and (iii) the pharmacodynamics (PD) effects of Compound A, primarily by evaluation of the sleep latency on MWT when a single dose given as a 9 hour continuous IV infusion is administered to patients with narcolepsy type 1.
# Pharmacokinetics: Concentrations of Compound A in plasma, and CSF, and pharmacokinetics parameters.
# On average, the time to reach the plateau appeared to be approximately 3 to 4 hours after the start of infusion. […] After switching off the IV infusion, Compound A plasma concentrations declined rapidly and in a biphasic manner with a mean terminal disposition phase t1/2z ranging approximately from 3.4 to 5.1 hours across all doses. […] Table 5 provides a summary of plasma concentrations of Compound A after a single IV infusion in healthy subjects. Table 6 provides a summary of pharmacokinetic parameters of Compound A after a single IV infusion in healthy subjects.
# [1] = 112 mg, read-out: Plasma concentration, Median
# [2] = 112 mg, read-out: Plasma concentration, Minimum
# [3] = 112 mg, read-out: Plasma concentration, Q1
# [4] = 112 mg, read-out: Plasma concentration, Q3
# [5] = 112 mg, read-out: Plasma concentration, Maximum
# [6] = 112 mg, read-out: Plasma concentration, Mean
# [7] = 134.4 mg, read-out: Plasma concentration, Maximum
# [8] = 134.4 mg, read-out: Plasma concentration, Mean
# [9] = 134.4 mg, read-out: Plasma concentration, Median
# [10] = 134.4 mg, read-out: Plasma concentration, Minimum
# [11] = 134.4 mg, read-out: Plasma concentration, Q1
# [12] = 134.4 mg, read-out: Plasma concentration, Q3
smiles,measurement,setting,value
"COC(=O)N1CCC[C@H](NS(C)(=O)=O)[C@@H]1CO[C@H]1CC[C@@H](c2ccccc2)CC1 [Compound A, methyl (2R,3S)-3-((methylsulfonyl)amino)-2-(((cis-4-phenylcyclohexyl)oxy)methyl)piperidine-1-carboxylate]",concentration at 1.5 h,[1],197 ng/mL
same,concentration at 1.5 h,[2],141 ng/mL
same,concentration at 1.5 h,[3],164 ng/mL
same,concentration at 1.5 h,[4],213 ng/mL
same,concentration at 2 h,[5],223 ng/mL
same,concentration at 2 h,[6],200 ng/mL
same,concentration at 2 h,[1],207 ng/mL
same,concentration at 2 h,[2],150 ng/mL
same,concentration at 2 h,[3],195 ng/mL
same,concentration at 2 h,[4],220 ng/mL
same,concentration at 3 h,[5],276 ng/mL
same,concentration at 3 h,[6],222 ng/mL
same,concentration at 3 h,[1],216 ng/mL
same,concentration at 3 h,[2],171 ng/mL
same,concentration at 3 h,[3],209 ng/mL
same,concentration at 3 h,[4],248 ng/mL
same,concentration at 4 h,[5],290 ng/mL
same,concentration at 4 h,[6],224 ng/mL
same,concentration at 4 h,[1],216 ng/mL
same,concentration at 4 h,[2],154 ng/mL
same,concentration at 4 h,[3],215 ng/mL
same,concentration at 4 h,[4],252 ng/mL
same,concentration at 6 h,[5],206 ng/mL
same,concentration at 6 h,[6],189 ng/mL
same,concentration at 6 h,[1],192 ng/mL
same,concentration at 6 h,[2],154 ng/mL
same,concentration at 6 h,[3],186 ng/mL
same,concentration at 6 h,[4],205 ng/mL
same,concentration at 8 h,[5],221 ng/mL
same,concentration at 8 h,[6],194 ng/mL
same,concentration at 8 h,[1],195 ng/mL
same,concentration at 8 h,[2],162 ng/mL
same,concentration at 8 h,[3],176 ng/mL
same,concentration at 8 h,[4],216 ng/mL
same,concentration at 9 h,[5],247 ng/mL
same,concentration at 9 h,[6],216 ng/mL
same,concentration at 9 h,[1],221 ng/mL
same,concentration at 9 h,[2],169 ng/mL
same,concentration at 9 h,[3],192 ng/mL
same,concentration at 9 h,[4],245 ng/mL
same,concentration at 0.5 h,[7],201 ng/mL
same,concentration at 0.5 h,[8],162 ng/mL
same,concentration at 0.5 h,[9],152 ng/mL
same,concentration at 0.5 h,[10],147 ng/mL
same,concentration at 0.5 h,[11],148 ng/mL
same,concentration at 0.5 h,[12],169 ng/mL
same,concentration at 1 h,[7],273 ng/mL
same,concentration at 1 h,[8],204 ng/mL
same,concentration at 1 h,[9],187 ng/mL
same,concentration at 1 h,[10],181 ng/mL
same,concentration at 1 h,[11],181 ng/mL
same,concentration at 1 h,[12],216 ng/mL
same,concentration at 1.5 h,[7],289 ng/mL
same,concentration at 1.5 h,[8],228 ng/mL
same,concentration at 1.5 h,[9],221 ng/mL
same,concentration at 1.5 h,[10],191 ng/mL
same,concentration at 1.5 h,[11],197 ng/mL
same,concentration at 1.5 h,[12],250 ng/mL
same,concentration at 2 h,[7],335 ng/mL
same,concentration at 2 h,[8],248 ng/mL
same,concentration at 2 h,[9],244 ng/mL
same,concentration at 2 h,[10],192 ng/mL
same,concentration at 2 h,[11],199 ng/mL
same,concentration at 2 h,[12],276 ng/mL
same,concentration at 3 h,[7],388 ng/mL
same,concentration at 3 h,[8],288 ng/mL
same,concentration at 3 h,[9],278 ng/mL
same,concentration at 3 h,[10],217 ng/mL
same,concentration at 3 h,[11],260 ng/mL
same,concentration at 3 h,[12],305 ng/mL
same,concentration at 4 h,[7],355 ng/mL
same,concentration at 4 h,[8],294 ng/mL
same,concentration at 4 h,[9],308 ng/mL
same,concentration at 4 h,[10],214 ng/mL
same,concentration at 4 h,[11],256 ng/mL
same,concentration at 4 h,[12],324 ng/mL
same,concentration at 6 h,[7],302 ng/mL
same,concentration at 6 h,[8],248 ng/mL
same,concentration at 6 h,[9],260 ng/mL
same,concentration at 6 h,[10],164 ng/mL
same,concentration at 6 h,[11],206 ng/mL
same,concentration at 6 h,[12],295 ng/mL
same,concentration at 8 h,[7],313 ng/mL
same,concentration at 8 h,[8],262 ng/mL
same,concentration at 8 h,[9],262 ng/mL
same,concentration at 8 h,[10],199 ng/mL
same,concentration at 8 h,[11],242 ng/mL
same,concentration at 8 h,[12],291 ng/mL
same,concentration at 9 h,[7],330 ng/mL
same,concentration at 9 h,[8],292 ng/mL
same,concentration at 9 h,[9],300 ng/mL
same,concentration at 9 h,[10],241 ng/mL
same,concentration at 9 h,[11],268 ng/mL
same,concentration at 9 h,[12],311 ng/mL
same,concentration at 0.5 h,"180 mg, read-out: Plasma concentration, Maximum",224 ng/mL
same,concentration at 0.5 h,"180 mg, read-out: Plasma concentration, Mean",180 ng/mL
same,concentration at 0.5 hr,"180 mg, read-out: Plasma concentration, Median",170 ng/mL
same,concentration at 0.5 hr,"180 mg, read-out: Plasma concentration, Minimum",161 ng/mL
same,concentration at 0.5 hr,"180 mg, read-out: Plasma concentration, Q1",163 ng/mL
same,concentration at 0.5 hr,"180 mg, read-out: Plasma concentration, Q3",194 ng/mL
